# Several values for one entry are separate records, joined by “and”; a condition that tells them apart may be missing. Equal entries are not always repeated.
# Columns and labels:
# [1] = system: GIST-T1 (exon 11-mutant) cells; experiment: GIST-T1 cells immunoblot; assay type: cell-based
# PBMNC = assay type: cell-based, human; conditions: ex vivo incubation for 8 h
# [2] = system: histone H3 acetylation in PBMNC; experiment: Acetylation of histone H3 in PBMNC of study patients; assay type: in vivo, human; conditions: dose level 1, three patients
# [3] = Phase I trial safety: adverse events; assay type: in vivo, human
# [4] = Pan 50 nm for 8 h, then withdrawal
# [5] = both dose levels + IM 400 mg, 12 patients
compound,measurement,setting,value
"Cc1[nH]c2ccccc2c1CCNCc1ccc(/C=C/C(=O)NO)cc1 [panobinostat, Panobinostat]",effect of continuous panobinostat treatment for 32 h,[1],reactivation of KIT phosphorylation
same,persistence of H3 acetylation after removal of panobinostat,[1]; [4],8 h
same,time to complete disappearance of H3 acetylation after removal,[1]; [4],≤ 24 h
same,concentration at which H3 acetylation became detectable,PBMNC,≥ 5 ng/mL
same,time H3 acetylation was maintained in PBMNCs,[2],24 h
same,"Anaemia, % of patients",[3]; [5],42% and 41.7%
same,"Anaemia, No. of patients Total",[3]; [5],5
same,"Chills, % of patients",[3]; [5],16.7%
same,"Chills, No. of patients Total",[3]; [5],2
same,"Constipation, % of patients",[3]; [5],16.7%
same,"Constipation, No. of patients Total",[3]; [5],2
same,"Creatinine, % of patients",[3]; [5],58% and 58.3%
same,"Creatinine, No. of patients Total",[3]; [5],7
same,"Diarrhoea, % of patients",[3]; [5],42% and 41.7%
same,"Diarrhoea, No. of patients Total",[3]; [5],5
same,"Dizziness, % of patients",[3]; [5],25.0%
same,"Dizziness, No. of patients Total",[3]; [5],3
same,"Dry mouth, % of patients",[3]; [5],16.7%
same,"Dry mouth, No. of patients Total",[3]; [5],2
same,"Dry skin, % of patients",[3]; [5],16.7%
same,"Dry skin, No. of patients Total",[3]; [5],2
same,"Dysgeusia, % of patients",[3]; [5],16.7%
same,"Dysgeusia, No. of patients Total",[3]; [5],2
same,"Dyspepsia, % of patients",[3]; [5],25.0%
same,"Dyspepsia, No. of patients Total",[3]; [5],3
same,"Fatigue, % of patients",[3]; [5],67% and 66.7%
same,"Fatigue, No. of patients Total",[3]; [5],8
same,"Headache, % of patients",[3]; [5],16.7%
same,"Headache, No. of patients Total",[3]; [5],2
same,"Hypothyroidism, % of patients",[3]; [5],25.0%
same,"Hypothyroidism, No. of patients Total",[3]; [5],3
same,"Lymphopenia, % of patients",[3]; [5],16.7%
same,"Lymphopenia, No. of patients Total",[3]; [5],2
same,"Muscle spasms, % of patients",[3]; [5],25.0%
same,"Muscle spasms, No. of patients Total",[3]; [5],3
same,"Nausea, % of patients",[3]; [5],50%
same,"Nausea, No. of patients Total",[3]; [5],6
same,"Neutropenia, % of patients",[3]; [5],16.7%
same,"Neutropenia, No. of patients Total",[3]; [5],2
same,"Oedema, % of patients",[3]; [5],25.0%
same,"Oedema, No. of patients Total",[3]; [5],3
same,"Thrombocytopenia, % of patients",[3]; [5],91.7%
same,"Thrombocytopenia, No. of patients Total",[3]; [5],11
same,"Vomiting, % of patients",[3]; [5],33% and 33.3%
same,"Vomiting, No. of patients Total",[3]; [5],4
same,"Weight loss, % of patients",[3]; [5],25.0%
same,"Weight loss, No. of patients Total",[3]; [5],3
same,MTD (dose level),[3]; dose level 1 = panobinostat 20 mg + IM 400 mg,dose level 1
same,dose-limiting toxicity,[3]; dose level 2 (30 mg panobinostat and 400 mg IM),severe thrombocytopenia
same,"Anaemia, No. of patients Grade 2",[3]; panobinostat 20 mg + IM 400 mg,3
same,"Anaemia, No. of patients Total",[3]; panobinostat 20 mg + IM 400 mg,3
same,"Chills, No. of patients Grade 1",[3]; panobinostat 20 mg + IM 400 mg,1
same,"Chills, No. of patients Grade 2",[3]; panobinostat 20 mg + IM 400 mg,1
same,"Chills, No. of patients Total",[3]; panobinostat 20 mg + IM 400 mg,2
same,"Constipation, No. of patients Grade 1",[3]; panobinostat 20 mg + IM 400 mg,1
same,"Constipation, No. of patients Total",[3]; panobinostat 20 mg + IM 400 mg,1
same,"Creatinine, No. of patients Grade 1",[3]; panobinostat 20 mg + IM 400 mg,2
same,"Creatinine, No. of patients Grade 2",[3]; panobinostat 20 mg + IM 400 mg,2
same,"Creatinine, No. of patients Grade 3",[3]; panobinostat 20 mg + IM 400 mg,1
same,"Creatinine, No. of patients Total",[3]; panobinostat 20 mg + IM 400 mg,5
same,"Diarrhoea, No. of patients Grade 1",[3]; panobinostat 20 mg + IM 400 mg,3
same,"Diarrhoea, No. of patients Grade 2",[3]; panobinostat 20 mg + IM 400 mg,1
same,"Diarrhoea, No. of patients Total",[3]; panobinostat 20 mg + IM 400 mg,4
same,"Dizziness, No. of patients Grade 1",[3]; panobinostat 20 mg + IM 400 mg,2
same,"Dizziness, No. of patients Total",[3]; panobinostat 20 mg + IM 400 mg,2
same,"Dry mouth, No. of patients Grade 1",[3]; panobinostat 20 mg + IM 400 mg,2
same,"Dry mouth, No. of patients Total",[3]; panobinostat 20 mg + IM 400 mg,2
same,"Dry skin, No. of patients Grade 1",[3]; panobinostat 20 mg + IM 400 mg,1
same,"Dry skin, No. of patients Total",[3]; panobinostat 20 mg + IM 400 mg,1
same,"Dysgeusia, No. of patients Grade 1",[3]; panobinostat 20 mg + IM 400 mg,2
same,"Dysgeusia, No. of patients Total",[3]; panobinostat 20 mg + IM 400 mg,2
same,"Dyspepsia, No. of patients Grade 1",[3]; panobinostat 20 mg + IM 400 mg,2
same,"Dyspepsia, No. of patients Total",[3]; panobinostat 20 mg + IM 400 mg,2
same,"Fatigue, No. of patients Grade 1",[3]; panobinostat 20 mg + IM 400 mg,3
same,"Fatigue, No. of patients Grade 2",[3]; panobinostat 20 mg + IM 400 mg,3
same,"Fatigue, No. of patients Total",[3]; panobinostat 20 mg + IM 400 mg,6
same,"Headache, No. of patients Grade 1",[3]; panobinostat 20 mg + IM 400 mg,1

# — paper PMC3950855 (British Journal of Cancer, 2014)
